From the supplement of paper PMC11451515

Assays:
Conditions in all cases: 48 h
P12-Ichikawa [1] = experiment: cell viability relative to DMSO control; higher = less cytotoxic
Outline: (§1)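 Viability is expressed as a percentage of DMSO wells within each plate, and cell-free wells serve as background. Seeding densities in the 1536-well plates (5 μl) were 500 cells/well for NOMO1 or SEM leukemia cells and 1000 cells/well for P12-Ichikawa. Each line was adapted for at least four passages in each medium. Library compounds in DMSO were pin-dosed at 47 μM to 0.79 nM (11 points, threefold), and CellTiter-Glo One luminescence was read after 48 h at 37°C.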

SEM cells [2] = experiment: as above
Outline: as §1

NOMO1 [3] = experiment: as above
Outline: as §1

P12-Ichikawa [4] = experiment: AUC of viability dose-response curve (% viability x log10 dose units); higher = less sensitive
Outline: (§2)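 Library compounds in DMSO were applied for 48 h at 37°C at 11 threefold doses (47 μM to 0.79 nM) to medium-adapted leukemia cells in 1536-well plates holding 500 or 1000 cells/well. Luminescence from CellTiter-Glo One was normalised plate by plate against DMSO and cell-free wells. Area under the curve came from trapezoidal integration of a log-logistic fit, after scaling curves that rose above full viability and discarding those that failed quality control. The fit had four parameters and used log10 doses.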

SEM cells [5] = experiment: as above
Outline: as §2

NOMO1 [6] = experiment: as above
Outline: as §2

CC/C(=C(/c1ccc(O)cc1)c1ccc(OCCNC)cc1)c1ccccc1
cell viability [%]
Conditions	NOMO1 [3]	P12-Ichikawa [1]	SEM cells [2]
HPLM + 10% dialyzed FBS, 0.000781 µM	99.4	105	61.4
HPLM + 10% dialyzed FBS, 0.00234 µM	98.4	108	99.5
HPLM + 10% dialyzed FBS, 0.00702 µM	98	110	91.2
HPLM + 10% dialyzed FBS, 0.0211 µM	103	115	102
HPLM + 10% dialyzed FBS, 0.0632 µM	106	118	103
HPLM + 10% dialyzed FBS, 0.19 µM	130	94.8	115
HPLM + 10% dialyzed FBS, 0.569 µM	113	104	101
HPLM + 10% dialyzed FBS, 1.71 µM	123	106	96.7
HPLM + 10% dialyzed FBS, 5.12 µM	90.8	71.9	65.6
HPLM + 10% dialyzed FBS, 15.4 µM	75.9	63	59.5
HPLM + 10% dialyzed FBS, 46.1 µM	47.1	68.6	26.1
RPMI 5 mM glucose + 10% FBS, 0.000781 µM	102	116	66.8
RPMI 5 mM glucose + 10% FBS, 0.00234 µM	97.2	108	102
RPMI 5 mM glucose + 10% FBS, 0.00702 µM	120	109	108
RPMI 5 mM glucose + 10% FBS, 0.0211 µM	108	108	112
RPMI 5 mM glucose + 10% FBS, 0.0632 µM	114	114	107
RPMI 5 mM glucose + 10% FBS, 0.19 µM	97.9	122	109
RPMI 5 mM glucose + 10% FBS, 0.569 µM	117	113	102
RPMI 5 mM glucose + 10% FBS, 1.71 µM	122	107	94.8
RPMI 5 mM glucose + 10% FBS, 5.12 µM	108	68.3	65.7
RPMI 5 mM glucose + 10% FBS, 15.4 µM	100	53.7	47.8
RPMI 5 mM glucose + 10% FBS, 46.1 µM	45.8	42	25.9
RPMI 5 mM glucose + 10% dialyzed FBS, 0.000781 µM	103	115	53.5
RPMI 5 mM glucose + 10% dialyzed FBS, 0.00234 µM	99.7	116	106
RPMI 5 mM glucose + 10% dialyzed FBS, 0.00702 µM	102	116	88.3
RPMI 5 mM glucose + 10% dialyzed FBS, 0.0211 µM	115	117	104
RPMI 5 mM glucose + 10% dialyzed FBS, 0.0632 µM	101	120	95.8
RPMI 5 mM glucose + 10% dialyzed FBS, 0.19 µM	106	126	123
RPMI 5 mM glucose + 10% dialyzed FBS, 0.569 µM	111	119	97.6
RPMI 5 mM glucose + 10% dialyzed FBS, 1.71 µM	104	101	97.6
RPMI 5 mM glucose + 10% dialyzed FBS, 5.12 µM	96.2	64.7	69.5
RPMI 5 mM glucose + 10% dialyzed FBS, 15.4 µM	84.3	49.4	43.5
RPMI 5 mM glucose + 10% dialyzed FBS, 46.1 µM	55.6	46.5	38

AUC of viability dose-response curve
Conditions	NOMO1 [6]	P12-Ichikawa [4]	SEM cells [5]
HPLM + 10% dialyzed FBS	443	432	410
RPMI 5 mM glucose + 10% FBS	459	414	412
RPMI 5 mM glucose + 10% dialyzed FBS	452	405	405

COC1CCC(CC1)N(C(=O)C2CCC(C)CC2)C3=C(SC(=C3)\C4=C\CCCC4)C(O)=O (stereo not drawn)
cell viability [%]
Conditions	NOMO1 [3]	P12-Ichikawa [1]	SEM cells [2]
HPLM + 10% dialyzed FBS, 0.000781 µM	120	118	111
HPLM + 10% dialyzed FBS, 0.00234 µM	120	118	120
HPLM + 10% dialyzed FBS, 0.00702 µM	109	116	119
HPLM + 10% dialyzed FBS, 0.0211 µM	127	111	117
HPLM + 10% dialyzed FBS, 0.0632 µM	128	108	113
HPLM + 10% dialyzed FBS, 0.19 µM	130	113	117
HPLM + 10% dialyzed FBS, 0.569 µM	107	111	104
HPLM + 10% dialyzed FBS, 1.71 µM	112	104	115
HPLM + 10% dialyzed FBS, 5.12 µM	106	95.3	112
HPLM + 10% dialyzed FBS, 15.4 µM	90.9	83.5	84.9
HPLM + 10% dialyzed FBS, 46.1 µM	52.6	60	72.1
RPMI 5 mM glucose + 10% FBS, 0.000781 µM	103	109	114
RPMI 5 mM glucose + 10% FBS, 0.00234 µM	115	112	111
RPMI 5 mM glucose + 10% FBS, 0.00702 µM	104	109	124
RPMI 5 mM glucose + 10% FBS, 0.0211 µM	119	108	128
RPMI 5 mM glucose + 10% FBS, 0.0632 µM	102	92.8	144
RPMI 5 mM glucose + 10% FBS, 0.19 µM	104	106	134
RPMI 5 mM glucose + 10% FBS, 0.569 µM	91.5	105	122
RPMI 5 mM glucose + 10% FBS, 1.71 µM	105	98.2	121
RPMI 5 mM glucose + 10% FBS, 5.12 µM	103	94.9	121
RPMI 5 mM glucose + 10% FBS, 15.4 µM	90.7	88.7	82.2
RPMI 5 mM glucose + 10% FBS, 46.1 µM	96	65.6	73.5
RPMI 5 mM glucose + 10% dialyzed FBS, 0.000781 µM	102	103	116
RPMI 5 mM glucose + 10% dialyzed FBS, 0.00234 µM	102	105	114
RPMI 5 mM glucose + 10% dialyzed FBS, 0.00702 µM	120	111	112
RPMI 5 mM glucose + 10% dialyzed FBS, 0.0211 µM	102	110	128
RPMI 5 mM glucose + 10% dialyzed FBS, 0.0632 µM	110	101	138
RPMI 5 mM glucose + 10% dialyzed FBS, 0.19 µM	99.4	102	108
RPMI 5 mM glucose + 10% dialyzed FBS, 0.569 µM	97	105	120
RPMI 5 mM glucose + 10% dialyzed FBS, 1.71 µM	109	97.6	137
RPMI 5 mM glucose + 10% dialyzed FBS, 5.12 µM	104	98.9	104
RPMI 5 mM glucose + 10% dialyzed FBS, 15.4 µM	93.4	77.8	75.3
RPMI 5 mM glucose + 10% dialyzed FBS, 46.1 µM	84.5	63.9	68

AUC of viability dose-response curve
Conditions	NOMO1 [6]	P12-Ichikawa [4]	SEM cells [5]
HPLM + 10% dialyzed FBS	442	438	455
RPMI 5 mM glucose + 10% FBS	446	451	449
RPMI 5 mM glucose + 10% dialyzed FBS	454	450	441

CC1(C)Cc2c(-c3ccccc3)c(-c3ccc(Cl)cc3)c(CC(=O)O)n2C1
cell viability [%]
Conditions	NOMO1 [3]	P12-Ichikawa [1]	SEM cells [2]
HPLM + 10% dialyzed FBS, 0.000781 µM	115	120	116
HPLM + 10% dialyzed FBS, 0.00234 µM	106	118	124
HPLM + 10% dialyzed FBS, 0.00702 µM	130	117	116
HPLM + 10% dialyzed FBS, 0.0211 µM	131	122	129
HPLM + 10% dialyzed FBS, 0.0632 µM	111	118	126
HPLM + 10% dialyzed FBS, 0.19 µM	120	110	106
HPLM + 10% dialyzed FBS, 0.569 µM	128	107	124
HPLM + 10% dialyzed FBS, 1.71 µM	106	112	91.9
HPLM + 10% dialyzed FBS, 5.12 µM	108	105	124
HPLM + 10% dialyzed FBS, 15.4 µM	99.5	103	112
HPLM + 10% dialyzed FBS, 46.1 µM	90.6	95.6	95.1
RPMI 5 mM glucose + 10% FBS, 0.000781 µM	102	115	116
RPMI 5 mM glucose + 10% FBS, 0.00234 µM	123	112	120
RPMI 5 mM glucose + 10% FBS, 0.00702 µM	118	118	129
RPMI 5 mM glucose + 10% FBS, 0.0211 µM	124	118	122
RPMI 5 mM glucose + 10% FBS, 0.0632 µM	119	110	110
RPMI 5 mM glucose + 10% FBS, 0.19 µM	115	107	96.3
RPMI 5 mM glucose + 10% FBS, 0.569 µM	112	111	105
RPMI 5 mM glucose + 10% FBS, 1.71 µM	101	110	92.8
RPMI 5 mM glucose + 10% FBS, 5.12 µM	99	97.8	110
RPMI 5 mM glucose + 10% FBS, 15.4 µM	111	99.6	101
RPMI 5 mM glucose + 10% FBS, 46.1 µM	96.8	83.5	90.7
RPMI 5 mM glucose + 10% dialyzed FBS, 0.000781 µM	110	106	–
RPMI 5 mM glucose + 10% dialyzed FBS, 0.00234 µM	114	108	–
RPMI 5 mM glucose + 10% dialyzed FBS, 0.00702 µM	105	115	–
RPMI 5 mM glucose + 10% dialyzed FBS, 0.0211 µM	115	102	–
RPMI 5 mM glucose + 10% dialyzed FBS, 0.0632 µM	117	107	–
RPMI 5 mM glucose + 10% dialyzed FBS, 0.19 µM	113	102	–
RPMI 5 mM glucose + 10% dialyzed FBS, 0.569 µM	114	106	–
RPMI 5 mM glucose + 10% dialyzed FBS, 1.71 µM	106	104	–
RPMI 5 mM glucose + 10% dialyzed FBS, 5.12 µM	105	103	–
RPMI 5 mM glucose + 10% dialyzed FBS, 15.4 µM	91.8	98.1	–
RPMI 5 mM glucose + 10% dialyzed FBS, 46.1 µM	89.2	86	–

AUC of viability dose-response curve
Conditions	NOMO1 [6]	P12-Ichikawa [4]	SEM cells [5]
HPLM + 10% dialyzed FBS	454	444	451
RPMI 5 mM glucose + 10% FBS	454	451	425
RPMI 5 mM glucose + 10% dialyzed FBS	458	466	407
